Source: US20250230147A1, “LACTAMS AS CBL-B INHIBITORS” (Genentech, Inc., priority 2021, published 2025)

Columns and labels:
[1] = biological target: c-Cbl (Homo sapiens (Human), UniProt P22681); assay: C-Cbl LCK Ub TR-FRET assay (c-cbl Lck HTRF); assay type: biochemical; conditions: for (fold-selectivity): C-cbl Lck HTRF IC50 relative to Cbl-b Lck HTRF IC50
In short: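 After the ubiquitination reaction, detection mixture was added and plates incubated 20 min at room temperature before reading. IC50 values were calculated with wells lacking LCK as the low control and DMSO as the high control.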

[2] = In vivo pharmacokinetics, mouse; parameters: species or system CD-1 mice; conditions: male, CD-1, plasma; for bioavailability: PO 1-5 mg/kg, read-out: Oral Bioavailability (F %); for clearance: single intravenous bolus 0.2-1 mg/kg, read-out: Mouse CL
Experimental: The pharmacokinetics of test compounds were evaluated following a single intravenous bolus (IV) of solution at a dose of 0.2-1 mg/kg and oral administration (PO) of solution/suspension at doses of 1-5 mg/kg in male cynomolgus monkey, beagle dogs, Sprague Dawley rats, or CD-1 mice using a parallel study design. Blood samples for the IV dose group were collected prior to administration (predose) and at 0.033, 0.083, 0.25, 0.5, 1, 3, 6, 9 and 24 hours post dose. Blood samples for PO dose groups were collected prior to administration (predose) and at 0.083, 0.25, 0.5, 1, 3, 6, 9 and 24 hours post dose. For the IV group, urine was collected from each animal at predose and from 0-6 and 6-24 hours post dose. The vehicle used for IV dose groups was a combination of PEG400 with citrate buffer (pH 5.0) or PEG400/Cremphor with DMSO/H2O, and for PO groups was MCT.
Plasma and urine concentrations were quantitated at Genentech Inc. using a non-validated LC/MS/MS method. The lower limit of quantitation (LLOQ) of the plasma and urine assays was 0.005 μM. PK parameters were determined by non-compartmental methods using WinNonlin (version 5.2, Pharsight Corporation, Mountain View, CA).

[3] = biological target: Cbl-b (Homo sapiens (Human), UniProt Q13191); assay: Cbl-b LCK Ub TR-FRET assay (Cbl-b Lck HTRF); assay type: biochemical
In short: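 Biotin-Cbl-b preincubated with compound (10-point 3-fold series) 60 min, then His-LCK with 1 mM ATP (2× mixture) added for 90 min at room temperature. Ubiquitination detected by TR-FRET using HA-ubiquitin/UBE2D2 adduct, anti-HA-D2 and streptavidin-Eu; IC50 normalised to no-LCK and DMSO controls.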

c-Cbl, sequence (P22681 47-435): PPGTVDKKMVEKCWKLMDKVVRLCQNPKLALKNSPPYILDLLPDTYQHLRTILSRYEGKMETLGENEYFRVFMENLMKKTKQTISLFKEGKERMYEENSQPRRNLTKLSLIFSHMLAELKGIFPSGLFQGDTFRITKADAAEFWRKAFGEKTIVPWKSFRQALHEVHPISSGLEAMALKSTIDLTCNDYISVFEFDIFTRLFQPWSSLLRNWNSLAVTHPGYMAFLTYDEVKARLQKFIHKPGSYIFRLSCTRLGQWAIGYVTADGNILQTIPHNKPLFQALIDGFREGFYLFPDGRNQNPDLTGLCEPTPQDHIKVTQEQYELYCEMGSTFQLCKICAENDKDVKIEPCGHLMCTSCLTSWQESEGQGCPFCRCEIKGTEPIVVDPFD
Cbl-b, sequence (Q13191 40-426): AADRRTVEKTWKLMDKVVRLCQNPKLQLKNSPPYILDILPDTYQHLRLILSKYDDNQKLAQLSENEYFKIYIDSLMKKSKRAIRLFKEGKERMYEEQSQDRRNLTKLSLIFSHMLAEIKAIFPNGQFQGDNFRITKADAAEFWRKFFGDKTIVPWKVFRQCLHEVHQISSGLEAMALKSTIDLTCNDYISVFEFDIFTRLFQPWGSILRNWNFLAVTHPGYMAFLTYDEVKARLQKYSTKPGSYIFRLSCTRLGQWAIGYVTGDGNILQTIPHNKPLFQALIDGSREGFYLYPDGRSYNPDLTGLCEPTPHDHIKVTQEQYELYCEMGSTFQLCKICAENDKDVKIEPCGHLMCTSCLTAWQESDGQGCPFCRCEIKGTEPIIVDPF

SMILES | IC50 [1] | (fold-selectivity) [1] | bioavailability [2] | clearance [2] | IC50 [3]
Cn1cnnc1[C@H](F)C1(c2cccc(N3Cc4c(cc(CN5CCC5)cc4C(F)(F)F)C3=O)c2)COC1 [Compound 70, (R)-6-(azetidin-1-ylmethyl)-2-(3-(3-(fluoro(4-methyl-4H-1,2,4-triazol-3-yl)methyl)oxetan-3-yl)phenyl)-4-(trifluoromethyl)isoindolin-1-one] | 210 nM | 1.9x | 2% | 44 mL/min/kg | 110 nM
CC(C)[C@H]1CN(C)CCN1Cc1cc2c(c(C(F)(F)F)c1)CN(c1cccc(C3([C@@H](F)c4nncn4C)COC3)c1)C2=O [Compound 187, 2-(3-(3-((R)-fluoro(4-methyl-4H-1,2,4-triazol-3-yl)methyl)oxetan-3-yl)phenyl)-6-(((S)-2-isopropyl-4-methylpiperazin-1-yl)methyl)-4-(trifluoromethyl)isoindolin-1-one] | 13 nM | 1.1x | 13% | 42 mL/min/kg | 11 nM
CNS(=O)(=O)CCNc1cc(C2(Cc3nncn3C)CCC2)cc(N2Cc3c(cc(CNC4(C)CCC4)cc3C(F)(F)F)C2=O)n1 [Compound 312, N-methyl-2-((4-(1-((4-methyl-4H-1,2,4-triazol-3-yl)methyl)cyclobutyl)-6-(6-(((1-methylcyclobutyl)amino)methyl)-1-oxo-4-(trifluoromethyl)isoindolin-2-yl)pyridin-2-yl)amino)ethanesulfonamide] | 110 nM | (1.5x) |  |  | 70 nM
Cn1cnnc1[C@@H](F)C1(c2cccc(N3Cc4c(cc(CN5CCCC5)cc4C(F)(F)F)C3=O)c2)CC(F)(F)C1 [Compound 396, (S)-2-(3-(3,3-difluoro-1-(fluoro(4-methyl-4H-1,2,4-triazol-3-yl)methyl)cyclobutyl)phenyl)-6-(pyrrolidin-1-ylmethyl)-4-(trifluoromethyl)isoindolin-1-one] | 150 nM | (1.3x) |  |  | 120 nM
Cn1cnnc1[C@H](F)C1(c2cccc(N3Cc4c(Br)cc(CNC5(C)CCC5)cc4C3=O)c2)COC1 [Compound 471, (R)-4-bromo-2-(3-(3-(fluoro(4-methyl-4H-1,2,4-triazol-3-yl)methyl)oxetan-3-yl)phenyl)-6-(((1-methylcyclobutyl)amino)methyl) isoindolin-1-one] | 6.8 nM | (0.83x) |  |  | 8.2 nM
Cn1cnnc1[C@@H](F)C1(c2cccc(N3Cc4c(cc(CNC5(C)CCC5)cc4C(F)(F)F)C3=O)c2)CC(F)(F)C1 [Compound 465, (S)-2-(3-(3,3-difluoro-1-(fluoro(4-methyl-4H-1,2,4-triazol-3-yl)methyl)cyclobutyl)phenyl)-6-(((1-methylcyclobutyl)amino)methyl)-4-(trifluoromethyl)isoindolin-1-one] | 13 nM | (0.90x) |  |  | 14 nM
CC[C@H]1CN(Cc2cc3c(c(C(F)(F)F)c2)CN(c2cccc(C4(Cc5nncn5C)CC(F)(F)C4)c2)C3=O)CCN1C [Compound 421, (S)-2-(3-(3,3-difluoro-1-((4-methyl-4H-1,2,4-triazol-3-yl)methyl)cyclobutyl)phenyl)-6-((3-ethyl-4-methylpiperazin-1-yl)methyl)-4-(trifluoromethyl)isoindolin-1-one] | 11 nM | (0.72x) |  |  | 15 nM
Cn1cnnc1CC1(c2cc(OCc3ccccc3)nc(N3Cc4c(cc(CNC5(C)CCC5)cc4C(F)(F)F)C3=O)c2)CCC1 [Compound 360, 2-(6-(benzyloxy)-4-(1-((4-methyl-4H-1,2,4-triazol-3-yl)methyl)cyclobutyl)pyridin-2-yl)-6-(((1-methylcyclobutyl)amino)methyl)-4-(trifluoromethyl)isoindolin-1-one] | 17 nM | (0.86x) |  |  | 20 nM
CC(C)[C@H]1CN(C)CCN1Cc1cc2c(c(C(F)(F)F)c1)CN(c1cccc(C3(Cc4nncn4C)CC(F)(F)C3)c1)C2=O [Compound 215, (S)-2-(3-(3,3-difluoro-1-((4-methyl-4H-1,2,4-triazol-3-yl)methyl)cyclobutyl)phenyl)-6-((2-isopropyl-4-methylpiperazin-1-yl)methyl)-4-(trifluoromethyl)isoindolin-1-one] | 5 nM | 0.66x |  |  | 7.5 nM
CC(C)[C@H]1CN(C)CCN1Cc1cc2c(c(C(F)(F)F)c1)CN(c1cccc(C3([C@@H](F)c4nncn4C(F)F)COC3)c1)C2=O [Compound 267, 2-(3-(3-((R)-(4-(difluoromethyl)-4H-1,2,4-triazol-3-yl)fluoromethyl)oxetan-3-yl)phenyl)-6-(((S)-2-isopropyl-4-methylpiperazin-1-yl)methyl)-4-(trifluoromethyl)isoindolin-1-one] | 17 nM | (1.0x) |  |  | 17 nM
Cn1cnnc1CC1(c2cc(OC3CCCC3)cc(N3Cc4c(cc(CNC5(C)CCC5)cc4C(F)(F)F)C3=O)c2)CC(F)(F)C1 [Compound 478, 2-(3-(cyclopentyloxy)-5-(3,3-difluoro-1-((4-methyl-4H-1,2,4-triazol-3-yl)methyl)cyclobutyl)phenyl)-6-(((1-methylcyclobutyl)amino)methyl)-4-(trifluoromethyl)isoindolin-1-one] | 160 nM | (2.0x) |  |  | 82 nM
CC(C)Nc1cc(N2Cc3c(cc(CNCC4CC4)cc3C(F)(F)F)C2=O)cc(C2(Cc3nncn3C)CCC2)c1 [Compound 459, 6-(((cyclopropylmethyl)amino)methyl)-2-(3-(isopropylamino)-5-(1-((4-methyl-4H-1,2,4-triazol-3-yl)methyl)cyclobutyl)phenyl)-4-(trifluoromethyl)isoindolin-1-one] | 8.7 nM | (0.70x) |  |  | 13 nM
CCCNCc1cc2c(c(C(F)(F)F)c1)CN(c1cccc(C3([C@H](F)c4nncn4C)CC(F)(F)C3)c1)C2=O [Compound 446, (S)-2-(3-(3,3-difluoro-1-(fluoro(4-methyl-4H-1,2,4-triazol-3-yl)methyl)cyclobutyl)phenyl)-6-((propylamino)methyl)-4-(trifluoromethyl)isoindolin-1-one] | 29 nM | (1.3x) |  |  | 26 nM
CN1CCN(Cc2cc3c(c(C(F)(F)F)c2)CN(c2cccc(C4(Cc5nncn5C)CC(F)(F)C4)c2)C3=O)[C@H](C2CC2)C1 [Compound 433, (R)-6-((2-cyclopropyl-4-methylpiperazin-1-yl)methyl)-2-(3-(3,3-difluoro-1-((4-methyl-4H-1,2,4-triazol-3-yl)methyl)cyclobutyl)phenyl)-4-(trifluoromethyl)isoindolin-1-one] | 120 nM | (1.3x) |  |  | 94 nM
Cn1cnnc1[C@H](F)C1(c2cccc(N3Cc4c(cc(CNC5(C)CC5)cc4C(F)(F)F)C3=O)c2)COC1 [Compound 229, (R)-2-(3-(3-(fluoro(4-methyl-4H-1,2,4-triazol-3-yl)methyl)oxetan-3-yl)phenyl)-6-(((1-methylcyclopropyl)amino)methyl)-4-(trifluoromethyl)isoindolin-1-one] | 10 nM | (0.83x) |  |  | 12 nM
CC(C)CNCc1cc2c(c(C(F)(F)F)c1)CN(c1cccc(C3([C@H](F)c4nncn4C)CC(F)(F)C3)c1)C2=O [Compound 452, (S)-2-(3-(3,3-difluoro-1-(fluoro(4-methyl-4H-1,2,4-triazol-3-yl)methyl)cyclobutyl)phenyl)-6-((isobutylamino)methyl)-4-(trifluoromethyl)isoindolin-1-one] | 9.1 nM | (0.78x) |  |  | 12 nM
CN(CCC(C)(C)O)Cc1cc2c(c(C(F)(F)F)c1)CN(c1cccc(C3([C@H](F)c4nncn4C)COC3)c1)C2=O [Compound 158, (S)-2-(3-(3-(fluoro(4-methyl-4H-1,2,4-triazol-3-yl)methyl)oxetan-3-yl)phenyl)-6-(((3-hydroxy-3-methylbutyl)(methyl)amino)methyl)-4-(trifluoromethyl)isoindolin-1-one] | 280 nM | 1.0x |  |  | 270 nM
Cn1cnnc1[C@@H](F)C1(c2cccc(N3Cc4c(cc(CN5CC6(COC6)C5)cc4C(F)(F)F)C3=O)c2)COC1 [Compound 10, (S)-6-(2-oxa-6-azaspiro[3.3]heptan-6-ylmethyl)-2-(3-(3-(fluoro(4-methyl-4H-1,2,4-triazol-3-yl)methyl)oxetan-3-yl)phenyl)-4-(trifluoromethyl)isoindolin-1-one] | 1100 nM | 2.3x |  |  | 500 nM
